Results: patent US20110039770A1, “INHIBITORS OF PROTEIN KINASE C ISOFORMS AND USES THEREOF” (PHARMAGAP INC., priority 2005, published 2011)
Where a SMILES comes first, the peptide text is derived from it. The star is where a group is joined. PNA(A) = NCCN(CC(=O)*)C(=O)Cn1cnc2c(N)ncnc21

Key:
PKC beta 1 [1] = target: T1, PKC beta 1 (Homo sapiens, UniProt P05771); experiment: Kinase-Glo Luminescent Kinase Assay; assay type: biochemical; design: purchased; conditions: read-out: % Inhibition PKC-βI
Procedure: (§1) Compounds TIM 10, 11, 13, 14, 15, and 18-22 (see Table 28) were tested for their ability to inhibit the activity of PKC-alpha, beta 1, delta and epsilon isoforms the Kinase-Glo™ Luminescent Kinase Assay (Promega, Cat # V6712/3/4) following the manufacturer's instructions.

PKC epsilon [2] = target: T2, PKC epsilon (Homo sapiens, UniProt Q02156); experiment: Kinase-Glo Luminescent Kinase Assay; assay type: biochemical; design: purchased; conditions: read-out: % Inhibition PKC-ε
T2 sequence (Q02156 1-737): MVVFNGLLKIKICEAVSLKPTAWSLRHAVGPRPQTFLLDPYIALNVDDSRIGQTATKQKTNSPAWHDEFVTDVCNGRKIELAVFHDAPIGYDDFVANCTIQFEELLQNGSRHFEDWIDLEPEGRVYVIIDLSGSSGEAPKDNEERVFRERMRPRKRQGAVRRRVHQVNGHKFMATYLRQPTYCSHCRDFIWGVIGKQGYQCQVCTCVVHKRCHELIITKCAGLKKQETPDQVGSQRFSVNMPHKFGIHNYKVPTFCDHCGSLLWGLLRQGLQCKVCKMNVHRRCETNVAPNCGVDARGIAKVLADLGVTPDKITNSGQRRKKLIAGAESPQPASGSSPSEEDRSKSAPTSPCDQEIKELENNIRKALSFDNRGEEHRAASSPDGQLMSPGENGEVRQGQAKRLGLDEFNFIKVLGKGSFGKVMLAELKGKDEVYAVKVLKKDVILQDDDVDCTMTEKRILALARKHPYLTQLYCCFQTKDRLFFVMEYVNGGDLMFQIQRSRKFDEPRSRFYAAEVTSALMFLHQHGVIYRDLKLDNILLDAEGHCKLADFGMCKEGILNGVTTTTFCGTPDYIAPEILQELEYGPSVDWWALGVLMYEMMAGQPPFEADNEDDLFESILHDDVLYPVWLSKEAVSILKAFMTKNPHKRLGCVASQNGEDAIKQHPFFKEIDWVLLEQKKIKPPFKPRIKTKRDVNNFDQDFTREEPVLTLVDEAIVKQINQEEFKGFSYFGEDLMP
Procedure: as §1

PKC delta [3] = target: T3, PKC delta (Homo sapiens, UniProt Q05655); experiment: Kinase-Glo Luminescent Kinase Assay; assay type: biochemical; conditions: read-out: % Inhibition PKC-δ
Procedure: as §1

PKC alpha = PKC alpha (Homo sapiens, UniProt P17252); experiment: Kinase-Glo Luminescent Kinase Assay; assay type: biochemical; conditions: read-out: % Inhibition PKC-α
Procedure: as §1

PKC zeta = target: T4, PKC zeta (Homo sapiens, UniProt Q05513); experiment: PKC isoform protein levels in cancer cell lines after TIM 10 (Western blot); assay type: cell-based; design: endogenous in cells; conditions: 5 mM by pinocytic influx, 24 hrs
T4 sequence (Q05513 1-592): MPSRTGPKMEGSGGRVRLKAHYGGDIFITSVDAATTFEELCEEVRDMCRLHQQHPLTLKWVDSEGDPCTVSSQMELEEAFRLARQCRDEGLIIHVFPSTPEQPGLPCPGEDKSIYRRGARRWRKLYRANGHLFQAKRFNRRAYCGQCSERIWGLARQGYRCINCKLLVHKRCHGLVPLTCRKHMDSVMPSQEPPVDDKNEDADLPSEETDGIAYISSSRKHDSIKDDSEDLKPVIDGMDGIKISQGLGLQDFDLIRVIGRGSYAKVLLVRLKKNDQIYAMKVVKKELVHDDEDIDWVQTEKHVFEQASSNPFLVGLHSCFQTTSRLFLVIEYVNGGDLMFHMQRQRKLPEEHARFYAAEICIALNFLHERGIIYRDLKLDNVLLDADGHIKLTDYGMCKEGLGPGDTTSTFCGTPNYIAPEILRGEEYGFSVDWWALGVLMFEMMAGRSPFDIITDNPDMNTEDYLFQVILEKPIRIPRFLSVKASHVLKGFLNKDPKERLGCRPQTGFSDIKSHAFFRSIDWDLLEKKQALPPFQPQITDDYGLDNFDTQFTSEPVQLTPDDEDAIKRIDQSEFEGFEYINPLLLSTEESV
Procedure: (§2) The effect of compound TIM 10 on the levels of protein for various PKC isoforms was assessed as generally described below in the following human cancer cell lines: MDA MB-231 breast adenocarcinoma cells (ATCC HTB-26); T24 bladder transitional cell carcinoma (ATCC HTB-4); SKOV-3 ovary adenocarcinoma (ATCC HTB-77); MCF-7 breast adenocarcinoma (ATCC HTB-22); Capan-2 pancreatic adenocarcinoma (ATCC HTB-80); NCI-H661 NSCL large cells (ATCC HTB-183); Calu-6 probable lung anaplastic carcinoma (ATCC HTB-56) and Calu-3 lung adenocarcinoma (ATCC HTB-55).
(§3) Cells representative of the different cancer types were cultured according to ATCC instructions. At subconfluence, the cells were trypsinized and compound 10 (5 mM) was incorporated into the cells by pinocytic influx endocytosis according to the manufacturer's instructions (Molecular Probe). Matching controls were treated accordingly except that vehicle was incorporated instead of compound 10. Following pinocytic influx, the cells were seeded and allowed to grow in fresh medium for 24 hrs. The cell cultures were further extracted using RIPA lysis buffer according to standard protocol. The protein content of each lysate was measured using Bradford protein estimation procedure (BioRad) and normalized. Following addition of sample buffer, the proteins from 15 μl of each extract were separated by electrophoresis, electro-transferred to nitrocellulose membranes and the various isoforms of PKC were detected using appropriate antibodies (Santa Cruz Biotechnology, Inc., CA). The relative intensity of bands of the expected molecular weight was estimated after scanning and the % decrease in the band intensity relative to control was calculated.

PKC delta [4] = target: T3, PKC delta; experiment: as above; assay type: cell-based; design: endogenous in cells; conditions: 5 mM by pinocytic influx, 24 hrs
Procedure: as §2, §3

PKC beta 1 [5] = target: T1, PKC beta 1; experiment: as above; assay type: cell-based; design: endogenous in cells; conditions: 5 mM by pinocytic influx, 24 hrs
Procedure: as §2, §3

PKC epsilon [6] = target: T2, PKC epsilon; experiment: as above; assay type: cell-based; design: endogenous in cells; conditions: 5 mM by pinocytic influx, 24 hrs
Procedure: as §2, §3

T1 sequence (P05771 whole entry, canonical isoform): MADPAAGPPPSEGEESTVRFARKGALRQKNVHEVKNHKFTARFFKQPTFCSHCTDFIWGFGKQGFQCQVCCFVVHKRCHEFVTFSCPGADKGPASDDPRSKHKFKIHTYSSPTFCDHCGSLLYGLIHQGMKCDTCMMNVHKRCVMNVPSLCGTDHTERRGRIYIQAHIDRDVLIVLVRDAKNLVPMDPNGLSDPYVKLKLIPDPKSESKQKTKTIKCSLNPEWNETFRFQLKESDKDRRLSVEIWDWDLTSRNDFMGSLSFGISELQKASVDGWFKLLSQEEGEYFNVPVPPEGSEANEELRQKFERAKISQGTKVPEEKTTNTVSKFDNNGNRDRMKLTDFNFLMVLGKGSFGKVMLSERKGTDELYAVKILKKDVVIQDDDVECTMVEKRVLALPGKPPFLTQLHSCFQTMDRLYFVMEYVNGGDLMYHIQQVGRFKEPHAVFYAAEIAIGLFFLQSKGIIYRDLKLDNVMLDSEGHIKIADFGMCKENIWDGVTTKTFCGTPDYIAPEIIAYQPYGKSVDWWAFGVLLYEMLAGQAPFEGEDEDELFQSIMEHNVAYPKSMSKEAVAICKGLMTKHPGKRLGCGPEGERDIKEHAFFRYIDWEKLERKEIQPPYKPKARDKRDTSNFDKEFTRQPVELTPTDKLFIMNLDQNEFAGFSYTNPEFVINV
T3 sequence (Q05655 whole entry): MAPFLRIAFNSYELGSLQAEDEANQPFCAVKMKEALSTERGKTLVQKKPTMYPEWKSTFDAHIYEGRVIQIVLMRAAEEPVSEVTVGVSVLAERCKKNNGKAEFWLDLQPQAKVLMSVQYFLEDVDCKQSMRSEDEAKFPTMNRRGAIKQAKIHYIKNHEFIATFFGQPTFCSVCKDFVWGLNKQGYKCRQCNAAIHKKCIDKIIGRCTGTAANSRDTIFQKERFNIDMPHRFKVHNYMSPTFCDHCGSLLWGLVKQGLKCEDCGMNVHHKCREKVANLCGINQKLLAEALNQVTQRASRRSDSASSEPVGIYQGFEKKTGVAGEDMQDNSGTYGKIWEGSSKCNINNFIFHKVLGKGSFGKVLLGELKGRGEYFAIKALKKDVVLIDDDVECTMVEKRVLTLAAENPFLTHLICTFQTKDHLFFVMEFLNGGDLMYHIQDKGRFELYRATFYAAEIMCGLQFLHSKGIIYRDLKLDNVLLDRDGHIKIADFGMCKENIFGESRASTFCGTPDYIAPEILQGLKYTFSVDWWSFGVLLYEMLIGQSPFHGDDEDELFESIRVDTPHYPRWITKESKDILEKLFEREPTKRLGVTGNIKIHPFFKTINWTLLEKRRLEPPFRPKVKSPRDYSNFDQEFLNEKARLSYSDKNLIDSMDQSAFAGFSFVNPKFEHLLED

SMILES: CC[C@H](C)[C@H](NC(=O)[C@H](CO)NC(=O)[C@@H](NC(=O)CNC(=O)[C@@H](NC(=O)[C@H](CC(C)C)NC(=O)[C@H](CC(N)=O)NC(=O)[C@H](CCC(N)=O)NC(=O)[C@H](C)NC(=O)[C@H](CC(=O)O)NC(=O)[C@H](CCCCN)NC(=O)CNC(=O)CNC(=O)CNC(=O)CNC(=O)CNC(=O)CNC(=O)CNC(=O)[C@H](CC(C)C)NC(=O)[C@H](CCCNC(=N)N)NC(=O)[C@H](Cc1ccccc1)NC(=O)[C@H](CCCCNC(=O)CN(CCN)C(=O)Cn1cnc2c(N)ncnc21)NC(=O)[C@H](CCCNC(=N)N)NC(=O)[C@H](CCCNC(=N)N)NC(=O)[C@H](Cc1ccccc1)NC(C)=O)[C@@H](C)CC)[C@@H](C)CC)C(N)=O [TIM 10] (Ac-FRRK(PNA(A))FRLGGGGGGGKDAQNLIGISI-NH2)
- inhibition at 15 µM (PKC beta 1 [1]; 15.0 μM): 74%
- inhibition at 30 µM (PKC beta 1 [1]; 30.0 μM): 100%
- inhibition at 15 µM (PKC epsilon [2]; 15.0 μM): -11%
- inhibition at 30 µM (PKC epsilon [2]; 30.0 μM): 85%
- inhibition at 15 µM (PKC delta [3]; 15.0 μM): 15.8%
- inhibition at 30 µM (PKC delta [3]; 30.0 μM): 22.1%
- inhibition at 15 µM (PKC alpha; 15.0 μM): 31.4%
- inhibition at 30 µM (PKC alpha; 30.0 μM): 28.6%
- % decrease PKC-ζ band intensity relative to control (PKC zeta; Capan-2): 0.0%
- % decrease PKC-ζ band intensity relative to control, Band 1 (PKC zeta; H661, Band 1): 13.4%
- % decrease PKC-ζ band intensity relative to control, Band 2 (PKC zeta; H661, Band 2): 0.0%
- % decrease PKC-ζ band intensity relative to control (PKC zeta; MCF-7): 7.3%
- % decrease PKC-ζ band intensity relative to control (PKC zeta; MDA-MB231): 0.0%
- % decrease PKC-ζ band intensity relative to control (PKC zeta; T24): 0.0%
- % decrease PKC-δ band intensity relative to control (PKC delta [4]; Calu-3): 22.2%
- % decrease PKC-δ band intensity relative to control (PKC delta [4]; Calu-6): 18.9%
- % decrease PKC-δ band intensity relative to control (PKC delta [4]; Capan-2): 53.3%
- % decrease PKC-δ band intensity relative to control (PKC delta [4]; H661): 0.0%
- % decrease PKC-δ band intensity relative to control (PKC delta [4]; MCF-7): 21.5%
- % decrease PKC-δ band intensity relative to control (PKC delta [4]; MDA-MB231): 36.6%
- % decrease PKC-δ band intensity relative to control (PKC delta [4]; SK-OV-3): 0.0%
- % decrease PKC-δ band intensity relative to control (PKC delta [4]; T24): 62.2%
- % decrease PKC-βI band intensity relative to control (PKC beta 1 [5]; Capan-2): 17.5%
- % decrease PKC-βI band intensity relative to control (PKC beta 1 [5]; H661): 3.0%
- % decrease PKC-βI band intensity relative to control (PKC beta 1 [5]; MCF-7): 0.0%
- % decrease PKC-βI band intensity relative to control (PKC beta 1 [5]; MDA-MB231): 0.0%
- % decrease PKC-ε band intensity relative to control (PKC epsilon [6]; Capan-2): 0.0%
- % decrease PKC-ε band intensity relative to control (PKC epsilon [6]; MCF-7): 0.0%
- % decrease PKC-ε band intensity relative to control (PKC epsilon [6]; MDA-MB231): 0.0%
